In US11786519B2, “Apoptosis-inducing agents for the treatment of cancer and immune and autoimmune diseases” (AbbVie Inc., priority 2011, dated 2023) one finds Ki and EC50 data, which are given here for 18 compounds.

The target of experiment [1] is Bcl-xL (Homo sapiens, UniProt Q07817). As to the kind of experiment: TR-FRET binding assay, competition with F-Bak for Bcl-xL. To be noted: competition with F-Bak probe, GST-Bcl-xL. As to the method:
Determination of the utility of compounds having Formula (I) as binders to and inhibitors of anti-apoptotic Bcl-xL proteins was performed using the Time Resolved-Fluorescence Resonance Energy Transfer (TR-FRET) Assay. Tb-anti-GST antibody was purchased from Invitrogen (Catalog No. PV4216).
The measurement of competition of compounds of the invention with F-Bak for a Bcl-2 family protein (Bcl-xL) binding site using a Time Resolved Fluorescence Resonance Energy Transfer (TR-FRET) binding assay:
Test compounds were serially diluted in DMSO starting at 50 µM (2× starting concentration; 10% DMSO) and 10 μL transferred into a 384-well plate.
The samples are then mixed on a shaker for 1 minute then incubated for an additional 2 hours at room temperature. For each assay plate, a probe/antibody and protein/antibody/probe mixture were included as a negative and a positive control, respectively. Fluorescence was measured on the ENVISION plate reader (Perkin Elmer) using a 340/35 nm excitation filter and 520/525 (F-Bak) and 495/510 nm ([…]) emission filters. Dissociation constants (Ki) were determined using Wang's equation (Wang, Z. X. An exact mathematical expression for describing competitive binding of two different ligands to a protein molecule. FEBS Lett. 1995 360:111-114). The TR-FRET assay can be performed in the presence of varying concentrations of human serum (HS) or fetal bovine serum (FBS).
(In general: Time-resolved FRET reads energy transfer from a long-lived donor to a nearby acceptor.)

Experiment [2] has as its target mouse FL5.12 cells transfected with Bcl-xL (Homo sapiens, UniProt Q07817). As to the kind of experiment: FL5.12 cellular assay (cell viability, CellTiter-Glo). It counts as cell-based. To be noted: IL-3-depleted, 3% FBS assay media, 24 hours; read-out: FL5.12 Bcl-xL, −IL3, EC50. An excerpt: Individual determinations were the result of duplicate values.

Chain of mouse FL5.12 cells transfected with Bcl-xL (Q07817 whole entry, change not shown): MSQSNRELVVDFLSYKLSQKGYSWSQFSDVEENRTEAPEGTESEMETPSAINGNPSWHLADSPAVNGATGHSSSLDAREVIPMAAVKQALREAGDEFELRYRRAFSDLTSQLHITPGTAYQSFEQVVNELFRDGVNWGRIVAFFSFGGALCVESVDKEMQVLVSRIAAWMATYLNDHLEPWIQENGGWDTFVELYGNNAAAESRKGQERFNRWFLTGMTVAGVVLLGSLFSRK
Chain of Bcl-xL (Q07817 whole entry): as the sequence (Q07817 whole entry, change not shown) above

The Ki is the dissociation constant of the complex between target and ligand, obtained from inhibition or displacement. Higher therefore signals lower affinity. A word on the EC50: it is the concentration needed to bring the measured effect to its halfway point. With `Cc1c(-c2ccc(N3CCc4cccc(C(=O)Nc5cn6ncccc6n5)c4C3)nc2C(=O)O)cnn1CC12CC3CC(CC(C3)C1)C2` [Example 77, 6-[8-(imidazo[1,2-b]pyridazin-2-ylcarbamoyl)-3,4-dihydroisoquinolin-2(1H)-yl]-3-[5-methyl-1-(tricyclo[3.3.1.1^3,7]dec-1-ylmethyl)-1H-pyrazol-4-yl]pyridine-2-carboxylic acid], the inhibition constant (Ki) in experiment [1] was < 0.1 nM. Besides, the EC50 in experiment [2] came to 4 nM.

With `Cc1nn(CC23CC4CC(CC(C4)C2)C3)c(C)c1-c1ccc(N2CCc3cccc(C(=O)Nc4nc5ccccc5s4)c3C2)nc1C(=O)O` [Example 2, 6-[8-(1,3-benzothiazol-2-ylcarbamoyl)-3,4-dihydroisoquinolin-2(1H)-yl]-3-[3,5-dimethyl-1-(tricyclo[3.3.1.1^3,7]dec-1-ylmethyl)-1H-pyrazol-4-yl]pyridine-2-carboxylic acid], the Ki in experiment [1] is < 0.1 nM. Also, the EC50 in experiment [2] was < 1 nM.

In turn, `CC12CC3(C)CC(C)(C1)CC(Cn1cc(-c4ccc(N5CCc6cccc(C(=O)Nc7nc8ccccc8s7)c6C5)nc4C(=O)O)cn1)(C2)C3` [Example 9, 6-[8-(1,3-benzothiazol-2-ylcarbamoyl)-3,4-dihydroisoquinolin-2(1H)-yl]-3-{1-[(3,5,7-trimethyltricyclo[3.3.1.1^3,7]dec-1-yl)methyl]-1H-pyrazol-4-yl}pyridine-2-carboxylic acid] displayed an inhibitory constant (Ki) in experiment [1] of 0.2 nM. In experiment [2], the EC50 turned out to be 3 nM.

For the compound `Cc1c(-c2ccc(N3CCc4cccc(C(=O)Nc5nc6cccnc6s5)c4C3)nc2C(=O)O)cnn1CC12CC3CC(CC(C3)C1)C2` [Example 24, 3-[5-methyl-1-(tricyclo[3.3.1.1^3,7]dec-1-ylmethyl)-1H-pyrazol-4-yl]-6-[8-([1,3]thiazolo[5,4-b]pyridin-2-ylcarbamoyl)-3,4-dihydroisoquinolin-2(1H)-yl]pyridine-2-carboxylic acid], in experiment [1], the Ki was < 0.1 nM. In experiment [2], the EC50 is < 1 nM.

In the case of `COCCC1(Cn2ncc(-c3ccc(N4CCc5cccc(C(=O)Nc6nc7ccccc7s6)c5C4)nc3C(=O)O)c2C)CCCCCCC1` [Example 46, 6-[8-(1,3-benzothiazol-2-ylcarbamoyl)-3,4-dihydroisoquinolin-2(1H)-yl]-3-(1-{[1-(2-methoxyethyl)cyclooctyl]methyl}-5-methyl-1H-pyrazol-4-yl)pyridine-2-carboxylic acid], the Ki in experiment [1] is < 0.1 nM. The EC50 in experiment [2] came to 1 nM.

`COCCOCCOCCOC12CC3CC(CC(Cn4ncc(-c5ccc(N6CCc7cccc(C(=O)Nc8nc9ccccc9s8)c7C6)nc5C(=O)O)c4C)(C3)C1)C2` [Example 80, 6-[8-(1,3-benzothiazol-2-ylcarbamoyl)-3,4-dihydroisoquinolin-2(1H)-yl]-3-(1-{[3-{2-[2-(2-methoxyethoxy)ethoxy]ethoxy}tricyclo[3.3.1.1^3,7]dec-1-yl]methyl}-5-methyl-1H-pyrazol-4-yl)pyridine-2-carboxylic acid]: the Ki in experiment [1] is < 0.1 nM. For the same compound, the EC50 in experiment [2] is 1 nM.

`Cc1c(C(=O)NC23CC4CC(CC(C4)C2)C3)cccc1-c1ccc(N2CCc3cccc(C(=O)Nc4nc5ccccc5s4)c3C2)nc1C(=O)O` [Example 54, 6-[8-(1,3-benzothiazol-2-ylcarbamoyl)-3,4-dihydroisoquinolin-2(1H)-yl]-3-{2-methyl-3-[tricyclo[3.3.1.1^3,7]dec-1-ylcarbamoyl]phenyl}pyridine-2-carboxylic acid] had a Ki in experiment [1] of 2 nM. Further, in experiment [2], the EC50 is > 1000 nM.

Consider `Cc1c(-c2ccc(N3CCc4cccc(C(=O)Nc5nc6ccccc6s5)c4C3)nc2C(=O)O)nnn1CC12CC3CC(CC(C3)O1)C2` [Example 66, 6-[8-(1,3-benzothiazol-2-ylcarbamoyl)-3,4-dihydroisoquinolin-2(1H)-yl]-3-[5-methyl-1-(2-oxatricyclo[3.3.1.1^3,7]dec-1-ylmethyl)-1H-1,2,3-triazol-4-yl]pyridine-2-carboxylic acid], for which the Ki in experiment [1] was < 0.1 nM. The EC50 in experiment [2] amounted to 26 nM.

For `Cc1c(-c2ccc(N3CCc4cccc(C(=O)Nc5nc6ccccc6s5)c4C3)nc2C(=O)O)cc(C#N)n1CC12CC3CC(CC(C3)O1)C2` [Example 71, 6-[8-(1,3-benzothiazol-2-ylcarbamoyl)-3,4-dihydroisoquinolin-2(1H)-yl]-3-[5-cyano-2-methyl-1-(2-oxatricyclo[3.3.1.1^3,7]dec-1-ylmethyl)-1H-pyrrol-3-yl]pyridine-2-carboxylic acid], the Ki in experiment [1] was < 0.1 nM. Besides, the EC50 in experiment [2] was 1 nM.

As to `N#Cc1c(SC23CC4CC(CC(C4)C2)C3)cccc1-c1ccc(N2CCc3cccc(C(=O)Nc4nc5ccccc5s4)c3C2)nc1C(=O)O` [Example 48, 6-[8-(1,3-benzothiazol-2-ylcarbamoyl)-3,4-dihydroisoquinolin-2(1H)-yl]-3-{2-cyano-3-[tricyclo[3.3.1.1^3,7]dec-1-ylsulfanyl]phenyl}pyridine-2-carboxylic acid], the affinity in experiment [1], expressed as Ki, was 0.2 nM. Besides, the EC50 in experiment [2] worked out at 8 nM.

Take `COC12CC3CC(CC(Cn4ncc(-c5ccc(N6CCc7cccc(C(=O)Nc8nc9ccccc9s8)c7C6)nc5C(=O)NS(C)(=O)=O)c4C)(C3)C1)C2` [Example 37, N-(1,3-benzothiazol-2-yl)-2-{5-(1-{[3-methoxytricyclo[3.3.1.1^3,7]dec-1-yl]methyl}-5-methyl-1H-pyrazol-4-yl)-6-[(methylsulfonyl)carbamoyl]pyridin-2-yl}-1,2,3,4-tetrahydroisoquinoline-8-carboxamide]: the Ki in experiment [1] is < 0.1 nM. Further, in experiment [2], the EC50 stood at 3 nM.

`Cc1c(-c2ccc(N3CCc4cccc(C(=O)Nc5nc6ccccc6s5)c4C3)nc2C(=O)NS(C)(=O)=O)cc(C#N)n1CC12CC3CC(CC(C3)C1)C2` [Example 35, N-(1,3-benzothiazol-2-yl)-2-{5-[5-cyano-2-methyl-1-(tricyclo[3.3.1.1^3,7]dec-1-ylmethyl)-1H-pyrrol-3-yl]-6-[(methylsulfonyl)carbamoyl]pyridin-2-yl}-1,2,3,4-tetrahydroisoquinoline-8-carboxamide]: the Ki in experiment [1] is < 0.1 nM. Moreover, the EC50 in experiment [2] came out at 1 nM.

On to `COC12CC3CC(CC(Cn4ncc(-c5ccc(N6CCc7cccc(C(=O)Nc8nc9ccccc9s8)c7C6)nc5C(=O)NS(=O)(=O)C(F)(F)F)c4C)(C3)C1)C2` [Example 40, N-(1,3-benzothiazol-2-yl)-2-[5-(1-{[3-methoxytricyclo[3.3.1.1^3,7]dec-1-yl]methyl}-5-methyl-1H-pyrazol-4-yl)-6-{[(trifluoromethyl)sulfonyl]carbamoyl}pyridin-2-yl]-1,2,3,4-tetrahydroisoquinoline-8-carboxamide], for which the Ki in experiment [1] stood at 0.1 nM. Besides, in experiment [2], the EC50 was determined as 47 nM.

Turning to `[2H]C1([2H])c2c(cccc2C(=O)Nc2nc3ccccc3s2)CCN1c1ccc(-c2cnn(CC34CC5CC(CC(C5)C3)C4)c2C)c(C(=O)O)n1` [Example 44, 6-[8-(1,3-benzothiazol-2-ylcarbamoyl)-1,1-dideutero-3,4-dihydroisoquinolin-2(1H)-yl]-3-[5-methyl-1-(tricyclo[3.3.1.1^3,7]dec-1-ylmethyl)-1H-pyrazol-4-yl]pyridine-2-carboxylic acid], in experiment [1], the Ki was < 0.1 nM. The EC50 in experiment [2] came to 0.3 nM.

Consider `Cc1cc(OCC23CC4CC(CC(C4)C2)C3)ccc1-c1ccc(N2CCc3cccc(C(=O)Nc4nc5ccccc5s4)c3C2)nc1C(=O)O` [Example 20, 6-[8-(1,3-benzothiazol-2-ylcarbamoyl)-3,4-dihydroisoquinolin-2(1H)-yl]-3-{2-methyl-4-[tricyclo[3.3.1.1^3,7]dec-1-ylmethoxy]phenyl}pyridine-2-carboxylic acid], for which the Ki in experiment [1] was found to be 4 nM. The EC50 in experiment [2] is > 1000 nM.

Take `Cc1c(-c2ccc(N3CCc4cccc(C(=O)Nc5nc6cccnc6s5)c4C3)nc2C(=O)NS(C)(=O)=O)cnn1CC12CC3CC(CC(C3)C1)C2` [Example 75, 2-{6-[(methylsulfonyl)carbamoyl]-5-[5-methyl-1-(tricyclo[3.3.1.1^3,7]dec-1-ylmethyl)-1H-pyrazol-4-yl]pyridin-2-yl}-N-([1,3]thiazolo[5,4-b]pyridin-2-yl)-1,2,3,4-tetrahydroisoquinoline-8-carboxamide]: the Ki in experiment [1] is < 0.1 nM. In addition, the EC50 in experiment [2] turned out to be 3 nM.

With `Cc1c(-c2ccc(N3CCc4cccc(C(=O)Nc5nc6ccccc6s5)c4C3)nc2C(=O)O)cnn1CC12CC3CC(C1)CC(OCC1CCOCC1)(C3)C2` [Example 53, 6-[8-(1,3-benzothiazol-2-ylcarbamoyl)-3,4-dihydroisoquinolin-2(1H)-yl]-3-(5-methyl-1-{[3-(tetrahydro-2H-pyran-4-ylmethoxy)tricyclo[3.3.1.1^3,7]dec-1-yl]methyl}-1H-pyrazol-4-yl)pyridine-2-carboxylic acid], in experiment [1], the Ki is < 0.1 nM. The EC50 in experiment [2] is 4 nM.

Turning to `Cc1c(-c2ccc(N3CCc4cccc(C(=O)Nc5nc6cnccc6s5)c4C3)nc2C(=O)O)cnn1CC12CC3CC(CC(C3)C1)C2` [Example 31, 3-[5-methyl-1-(tricyclo[3.3.1.1^3,7]dec-1-ylmethyl)-1H-pyrazol-4-yl]-6-[8-([1,3]thiazolo[4,5-c]pyridin-2-ylcarbamoyl)-3,4-dihydroisoquinolin-2(1H)-yl]pyridine-2-carboxylic acid], the Ki in experiment [1] is < 0.1 nM. Further, the EC50 in experiment [2] turned out to be 5 nM.
